According to patent US20080167385A1 (priority 2004, published 2008):
Entries after “also recorded” stand apart in the source; their conditions may differ.

Tests used:
[1] = test system: PCNA-dependent DNA replication; settings: cited from earlier work
PCNA = target: T1, PCNA (Homo sapiens, UniProt P12004); settings: cited from earlier work
T1 construct: made in house; host or cells: Escherichia coli BL21(DE3), pT7-PCNA

CDK4/cyclin D1 [2] = target: T2, CDK4/cyclin D1 (Homo sapiens, UniProt P11802+P24385); settings: background; cited from earlier work
T2 construct: His6 (N); made in house; host or cells: CDK4: Sf9 insect cells (baculovirus); GST-pRb: E. coli BL21(DE3)
T2 sequence (P11802 whole entry): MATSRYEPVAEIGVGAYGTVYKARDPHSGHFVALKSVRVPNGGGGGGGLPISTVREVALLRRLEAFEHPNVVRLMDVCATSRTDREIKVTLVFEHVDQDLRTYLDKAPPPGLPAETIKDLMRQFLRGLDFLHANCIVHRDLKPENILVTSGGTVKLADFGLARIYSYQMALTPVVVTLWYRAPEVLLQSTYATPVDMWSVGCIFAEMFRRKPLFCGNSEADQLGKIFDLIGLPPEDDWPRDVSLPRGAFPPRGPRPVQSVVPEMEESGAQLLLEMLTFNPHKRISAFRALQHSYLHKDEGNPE
T2 sequence (P24385 whole entry): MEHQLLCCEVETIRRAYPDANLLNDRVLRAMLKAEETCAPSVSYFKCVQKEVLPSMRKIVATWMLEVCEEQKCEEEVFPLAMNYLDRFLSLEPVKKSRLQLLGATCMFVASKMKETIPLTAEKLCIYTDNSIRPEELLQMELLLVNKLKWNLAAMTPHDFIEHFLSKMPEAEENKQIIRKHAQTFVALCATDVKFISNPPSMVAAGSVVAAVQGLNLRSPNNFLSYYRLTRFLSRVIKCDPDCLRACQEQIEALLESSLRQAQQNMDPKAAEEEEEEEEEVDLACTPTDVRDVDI

CDK4/cyclin D1 [3] = target: T2, CDK4/cyclin D1; assay: CDK4/cyclin D1 kinase assay (in vitro pRb phosphorylation); type: biochemical
Method: For the 96-well format in vitro kinase assay GST-pRb was used immobilized on glutathione-Sepharose beads.
CDK4/cyclin D1 kinase assay: The reaction mixture consisted of 1 μM of CDK4 and cyclin D1, 5 μg GST-pRb, 100 mM ATP and 0.2 μCi ^32P-ATP. The kinase reaction was carried out for 10 min at 30° C., the reaction was stopped with the addition of sample buffer and after heating the sample was resolved on 10% SDS-PAGE. The aouthoradiography images were scanned and quantified using QuickScan software. The IC50 values were determined using GraFit software.

T1 sequence (P12004 whole entry): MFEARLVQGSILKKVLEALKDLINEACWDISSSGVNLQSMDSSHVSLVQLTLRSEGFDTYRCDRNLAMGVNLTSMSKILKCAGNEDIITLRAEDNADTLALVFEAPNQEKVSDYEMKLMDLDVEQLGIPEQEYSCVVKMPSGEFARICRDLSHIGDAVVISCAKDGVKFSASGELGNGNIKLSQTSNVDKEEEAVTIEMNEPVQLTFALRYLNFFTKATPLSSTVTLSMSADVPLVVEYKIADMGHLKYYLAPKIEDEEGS

Row | Substance | inhibition of DNA replication in vitro (in words) [1] | affinity for PCNA (in words) (PCNA) | enthalpy of binding to PCNA (PCNA; isothermal calorimetry) | entropic contribution to PCNA binding (PCNA; isothermal calorimetry) | Kd (PCNA; read-out: Kd of binding to PCNA) | inhibition of CDK function (CDK4/cyclin D1 [2]) | CDK/cyclin inhibitory activity (CDK4/cyclin D1 [3]) | Ka of binding to PCNA (PCNA; isothermal calorimetry)
1 | SAVLQKKITDYFHPKK [CM peptide, hybrid containing 12 residues from the C-terminus of Pogo, flanked by 4 residues from DNA ligase I] | potency very similar to that of p21(141-160); also recorded: efficient inhibitor | nanomolar affinity; also recorded: affinity very similar to that of the p21(141-160) peptide | -9.52 kcal/mol | 0.61 cal mol^−1 ° C.^−1 | 100 nM | unable to inhibit CDK function | devoid of CDK/cyclin inhibitory activity; also recorded: does not inhibit CDK function | 
2 | p21D149A: site point mutant p21(141-160)D149A (KRRQTSMTAFYHSKRRLIFS; UniProt P38936 141-160, looked up, variant D149A) [reference compound] |  |  |  |  |  |  |  | 7.8×10^5
